Earlier results, collected in patent US11220552B2, “Anti-CD20 combinations for treating tumors” (BIRDIE BIOPHARMACEUTICALS, INC., priority 2016, dated 2022).

What was measured:
[1] = system: rituximab-sensitive and resistant cells
CD20 = target: T1, CD20 (Homo sapiens, UniProt P11836); conditions: Asp101 instead of Asn101 in CDR3 of variable heavy chain, versus rituximab CDRs
T1 sequence (P11836 1-297): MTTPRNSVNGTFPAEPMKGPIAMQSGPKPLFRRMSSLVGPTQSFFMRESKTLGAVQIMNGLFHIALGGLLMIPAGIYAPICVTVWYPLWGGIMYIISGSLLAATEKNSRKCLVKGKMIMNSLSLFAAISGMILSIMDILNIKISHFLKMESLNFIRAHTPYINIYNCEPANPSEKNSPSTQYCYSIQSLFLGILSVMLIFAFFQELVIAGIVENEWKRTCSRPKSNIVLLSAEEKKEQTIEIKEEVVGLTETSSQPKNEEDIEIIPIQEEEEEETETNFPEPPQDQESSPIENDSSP

[2] = system: three human lymphoma cell lines

Ofatumumab: fully human type I anti-CD20 IgG1kappa mAb (Genmab)
potency compared with rituximab ([1]; both rituximab-sensitive and resistant cells): more potent than rituximab

Ocrelizumab: type I second generation humanized anti-CD20 mAb (Genentech/Roche/Biogen)
ADCC activity compared with rituximab (lymphoid malignancies): increased
CDC activity compared with rituximab (lymphoid malignancies): lower

GA101: fully humanized, type II, glycoengineered IgG1 anti-CD20 mAb (Glycart/Roche)
activity in rituximab-resistant cell lines ([1]; rituximab-resistant cell lines): activity

Veltuzumab: humanized, type I anti-CD20 IgG1 mAb with CDRs identical to rituximab except Asp101 instead of Asn101
off-rates (CD20): significantly slower
CDC cytotoxicity [2]: increased
